In PMC9705435, “Thiocarbazate building blocks enable the construction of azapeptides for rapid development of therapeutic candidates” (Nature Communications, 2022):
Several values for one entry are separate records, joined by “and”; a condition that tells them apart may be missing. Equal entries are not always repeated. Numbered stars: 1 amine (or outer) side, 2 acyl side, 3 side chain; on linkers, the order of the positions; unused ones are H or OH. Square brackets hold non-standard residues; d marks the D form. Peptide text beside a SMILES is read from it. * marks the point of attachment. azaPhe = O=C(N(Cc1ccccc1)N[*:1])[*:2]; azaPro = O=C(N1CCCN1[*:1])[*:2]; X1 = N=C(N)NCCCN(N)C(=O)*; azaGly = NNC(=O)O

Assays:
3T3 cells = molecular target: T1, 3T3 cells (Mus musculus, UniProt P32299); assay: PGE2 induction in 3T3 fibroblasts (ELISA); assay type: cell-based; conditions: 7 min, serum-free medium
T1 sequence (P32299 1-392): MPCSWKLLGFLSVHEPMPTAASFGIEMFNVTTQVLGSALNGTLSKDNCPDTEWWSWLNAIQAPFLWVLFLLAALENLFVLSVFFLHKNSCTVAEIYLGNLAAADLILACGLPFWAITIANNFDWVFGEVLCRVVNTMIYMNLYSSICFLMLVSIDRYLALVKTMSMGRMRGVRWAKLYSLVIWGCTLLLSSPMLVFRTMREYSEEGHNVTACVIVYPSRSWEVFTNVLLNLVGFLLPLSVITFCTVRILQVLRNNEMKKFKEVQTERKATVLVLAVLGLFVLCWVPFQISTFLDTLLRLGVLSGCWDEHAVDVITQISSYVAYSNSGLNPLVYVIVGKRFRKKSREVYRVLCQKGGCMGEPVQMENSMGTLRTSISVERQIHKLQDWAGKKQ
Description: Subconfluent monolayers of 3T3 cells were incubated with test compounds for 7 min in serum-free medium and supernatants were collected and analyzed for PGE2 by ELISA.
5.1 In vitro PGE2 induction
3T3 Swiss Albino cell line (ATCC CCL-92) was purchased from American Type Culture Collection (Manassas, VA).
Following trypsinization, cells were washed and resuspended in DMEM-Complete at a cell density of 0.03 x 10^6 cells per ml. Cells were seeded into 96 -well flat-bottomed culture plates (6 x 10^3 cells per well in 200 µl). After one day of culture, 3T3 cell monolayers were washed two times in pre-warmed DMEM supplemented with 20 mM HEPES (DMEM-HEPES) and DMEM-HEPES
supernatants were collected and immediately frozen at -20°C for future PGE2 analyses. PGE2 levels in supernatants were determined using PGE2 ELISA kit (Enzo Life Sciences, Farmingdale, NY) following manufacturer’s instructions. Samples were assayed in quadruplicate. PGE2 ELISA data were analyzed using GraphPad Prism Version 9.3.1.

in vitro = conditions: male, C57BL/6J, mouse, blood
[1] = molecular target: T2, Human B2 (h) receptor (B2R) (Homo sapiens, UniProt P30411); assay: Human B2 (h) (agonist radioligand) receptor binding assay, [3H]bradykinin displacement
T2 construct: host or cells: CHO cells
T2 sequence (P30411 1-391): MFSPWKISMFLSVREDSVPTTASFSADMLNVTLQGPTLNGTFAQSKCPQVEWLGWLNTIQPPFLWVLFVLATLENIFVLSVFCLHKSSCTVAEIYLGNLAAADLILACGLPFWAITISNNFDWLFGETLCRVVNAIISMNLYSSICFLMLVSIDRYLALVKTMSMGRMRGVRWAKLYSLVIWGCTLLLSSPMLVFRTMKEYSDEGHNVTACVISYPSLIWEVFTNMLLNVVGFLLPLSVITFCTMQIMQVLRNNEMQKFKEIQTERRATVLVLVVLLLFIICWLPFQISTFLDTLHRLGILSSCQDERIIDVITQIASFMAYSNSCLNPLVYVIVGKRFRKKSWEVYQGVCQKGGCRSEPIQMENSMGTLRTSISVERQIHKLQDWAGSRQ
From the text: The data was collected by CRO Eurofins Cerep (France) and the result is attached as an additional data file. B2R radioligand agonist binding displacement assay for determination of IC-50.
Test compounds (FI-U / [azaP2, azaF8-BK (70), FI-2V / azaF8-BK (68), and FI-8G / azaP2-BK (63)) were supplied to Eurofins in a blinded manner and run at five concentrations to determine the IC-50’s. Standard company control test compounds were used for assay validation. Experimental assays achieved inhibition of more than 50% and were considered to represent significant effects of the test compounds.
(B2(h)) was used as the agonist for B2R receptor binding. The results are expressed as a percent of control specific binding (measured specific binding /control specific binding)*100, and as a percent inhibition of control specific binding (100 minus (measured specific binding/ control specific binding)*100) obtained in the presence of the test compounds. The IC50 values (concentration causing a half-maximal inhibition of control specific binding) and Hill coefficients (nH) were determined by non-linear regression analysis of the competition curves generated with mean replicate values using Hill equation curve fitting Y=D+[ A-D / 1+(C/C50) nH] where Y = specific binding, A = left asymptote of the curve, D = right asymptote of the curve, C = compound concentration, C50 = IC50, and nH = slope factor. This analysis was performed using software developed at Cerep (Hill software) and validated by comparison with data generated by the commercial software SigmaPlot® 4.0 for […]
The inhibition constants (Ki) were calculated using the Cheng Prusoff equation. Ki=IC50/(1+L/Kd) where L = concentration of radioligand in the assay, and Kd = affinity of the radioligand for the receptor. A scatchard plot is used to determine the Kd. […]
9.1. Experimental Conditions
9.1.1. In Vitro Pharmacology: Binding Assays
Assay Source Ligand Conc. Kd Non Specific Incubation Detection Bibl.
(agonist recombinant (1 µM) RT counting
9.2. Analysis and expression of results
9.2.1. In Vitro Pharmacology: Binding Assays
The results are expressed as a percent of control specific binding measured specific binding *100 […]
and as a percent inhibition of control specific binding
100-( measured specific binding *100) […]
obtained in the presence of the test compounds.
The IC50 values (concentration causing a half-maximal inhibition of control specific binding) and Hill coefficients (nH) were determined by non-linear regression analysis of the competition curves generated with mean replicate values using Hill equation […]
where Y = specific binding, A = left asymptote of the curve, D = right asymptote of the curve, C = compound concentration, C50 = IC50, and nH = slope factor. This analysis was performed using software developed at Cerep (Hill software) and validated by […]
The inhibition constants (Ki ) were calculated using the Cheng Prusoff equation where L = concentration of radioligand in the assay, and KD = affinity of the radioligand for the receptor. A scatchard plot is used to […]

HMGB1/MD-2 binding = molecular target: T3, HMGB1/MD-2 binding (Homo sapiens, UniProt Q9Y6Y9); assay: SPR HMGB1/MD-2 binding inhibition assay; conditions: immobilized disulfide HMGB1, MD-2 0.25 µM
T3 construct: purchased R&D Systems 1787-MD
T3 sequence (Q9Y6Y9 17-160 limits assumed): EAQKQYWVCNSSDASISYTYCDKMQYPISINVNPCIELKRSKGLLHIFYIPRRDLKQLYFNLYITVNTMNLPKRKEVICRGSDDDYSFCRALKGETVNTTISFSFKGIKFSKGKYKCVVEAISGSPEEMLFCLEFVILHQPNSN

SMILES: NC(N)=NCCC[C@H](NC(=O)[C@H](Cc1ccccc1)NC(=O)[C@@H]1CCCN1C(=O)[C@H](CO)NC(=O)[C@H](Cc1ccccc1)NC(=O)CNC(=O)[C@@H]1CCCN1C(=O)[C@@H]1CCCN1C(=O)[C@@H](N)CCCN=C(N)N)C(=O)O [Bradykinin, reference compound] (H-RPPGFSPFR-OH)
- EC50 (3T3 cells): 44.4 nM
- half-life (in vitro): 5.29 ± 0.5 min

SMILES: N=C(N)NCCC[C@H](NC(=O)N(Cc1ccccc1)NC(=O)[C@@H]1CCCN1C(=O)[C@H](CO)NC(=O)[C@H](Cc1ccccc1)NC(=O)CNC(=O)[C@@H]1CCCN1C(=O)[C@@H]1CCCN1C(=O)[C@@H](N)CCCNC(=N)N)C(=O)O [Compound 68, RPPGFSPazaF^8R] (H-RPPGFSP[azaPhe]R-OH; N-terminus and C-terminus assumed)
- EC50 (3T3 cells): 99.6 nM
- IC50 [1]: 8.8 nM
- Ki [1]: 4.1 nM
- % Inhibition of Control Specific Binding, 1st ([1]; 1.0E-06 M): 99.7%
- % Inhibition of Control Specific Binding, 2nd ([1]; 1.0E-06 M): 100.1%
- % Inhibition of Control Specific Binding, Mean ([1]; 1.0E-06 M): 99.9%
- % Inhibition of Control Specific Binding, 1st ([1]; 1.0E-07 M): 98.0%
- % Inhibition of Control Specific Binding, 2nd ([1]; 1.0E-07 M): 95.2%
- % Inhibition of Control Specific Binding, Mean ([1]; 1.0E-07 M): 96.6%
- % Inhibition of Control Specific Binding, 1st ([1]; 1.0E-08 M): 61.5%
- % Inhibition of Control Specific Binding, 2nd ([1]; 1.0E-08 M): 66.7%
- % Inhibition of Control Specific Binding, Mean ([1]; 1.0E-08 M): 64.1%
- % Inhibition of Control Specific Binding, 1st ([1]; 1.0E-09 M): 8.0%
- % Inhibition of Control Specific Binding, 2nd ([1]; 1.0E-09 M): 2.9%
- % Inhibition of Control Specific Binding, Mean ([1]; 1.0E-09 M): 5.4%
- % Inhibition of Control Specific Binding, 1st ([1]; 3.0E-08 M): 72.4%
- % Inhibition of Control Specific Binding, 2nd ([1]; 3.0E-08 M): 64.6%
- % Inhibition of Control Specific Binding, Mean ([1]; 3.0E-08 M): 68.5%
- half-life (in vitro): 39.3 ± 2.5 min

SMILES: NC(=O)CCN(NC(=O)[C@H](CO)NC(=O)[C@H](CO)NC(=O)N(N)Cc1ccccc1)C(N)=O [Compound 57, azaF^1SSazaQ^4-NH2]
- IC50 (HMGB1/MD-2 binding): 83 nM
- half-life (in vitro): > 120 min

SMILES: N=C(N)NCCC[C@H](NC(=O)[C@H](Cc1ccccc1)NC(=O)[C@@H]1CCCN1C(=O)[C@H](CO)NC(=O)[C@H](Cc1ccccc1)NC(=O)CNC(=O)N1CCCN1C(=O)[C@@H]1CCCN1C(=O)[C@@H](N)CCCNC(=N)N)C(=O)O [Compound 64, RPazaP^3GFSPFR]
- half-life (in vitro): 2.63 ± 0.25 min

SMILES: NC(=O)CC[C@H](NC(=O)[C@H](CO)NC(=O)[C@H](CO)NC(=O)N(N)Cc1ccccc1)C(=O)O [Compound 55, azaF^1SSQ-OH]
- IC50 (HMGB1/MD-2 binding): 159 nM
- half-life (in vitro): 24.4 ± 1.6 min

SMILES: N=C(N)NCCC[C@H](NC(=O)N(Cc1ccccc1)NC(=O)[C@@H]1CCCN1C(=O)[C@H](CO)NC(=O)N(Cc1ccccc1)NC(=O)CNC(=O)[C@@H]1CCCN1C(=O)[C@@H]1CCCN1C(=O)[C@@H](N)CCCNC(=N)N)C(=O)O [Compound 71, RPPGazaF^5SPazaF^8R] (H-RPPG[azaPhe]SP[azaPhe]R-OH; N-terminus and C-terminus assumed)
- half-life (in vitro): 106 ± 1.8 min

SMILES: NN(Cc1ccccc1)C(=O)N[C@@H](CO)C(=O)N[C@@H](CO)C(=O)N[C@@H](CCC(=O)O)C(=O)O [Compound 54, azaF^1SSE-OH]
- IC50 (HMGB1/MD-2 binding): 127 nM
- half-life (in vitro): > 120 min

SMILES: NC(=O)[C@H](CCC(=O)O)NC(=O)[C@H](CO)NC(=O)[C@H](CO)NC(=O)N(N)Cc1ccccc1 [Compound 52, azaF^1SSE-NH2]
- IC50 (HMGB1/MD-2 binding): 249 nM
- half-life (in vitro): > 120 min

SMILES: N=C(N)NCCC[C@H](NC(=O)[C@H](Cc1ccccc1)NC(=O)N1CCCN1C(=O)[C@H](CO)NC(=O)[C@H](Cc1ccccc1)NC(=O)CNC(=O)[C@@H]1CCCN1C(=O)[C@@H]1CCCN1C(=O)[C@@H](N)CCCNC(=N)N)C(=O)O [Compound 67, RPPGFSazaP^7FR] (H-RPPGFS[azaPro]FR-OH)
- half-life (in vitro): 2.38 ± 0.03 min

SMILES: N=C(N)NCCC[C@H](N)C(=O)N1CCC[C@H]1C(=O)N1CCC[C@H]1C(=O)NCC(=O)N[C@@H](Cc1ccccc1)C(=O)N[C@@H](CO)C(=O)N1CCC[C@H]1C(=O)N[C@@H](Cc1ccccc1)C(=O)NN(CCCNC(=N)N)C(=O)O [Compound 69]
- half-life (in vitro): 42.6 ± 0.8 min

SMILES: NC(=O)CC[C@H](NC(=O)[C@H](CO)NC(=O)[C@H](CO)NC(=O)N(N)Cc1ccccc1)C(N)=O [Compound 56, azaF^1SSQ-NH2]
- IC50 (HMGB1/MD-2 binding): 349 nM
- half-life (in vitro): > 120 min

SMILES: NC(=O)CCN(NC(=O)[C@H](CO)NC(=O)[C@H](CO)NC(=O)[C@@H](N)Cc1ccccc1)C(N)=O [Compound 58, FSSazaQ^4-NH2]
- IC50 (HMGB1/MD-2 binding): 423 nM
- half-life (in vitro; Ex-vivo stability t 1/2): 2.9 ± 0.2 min

SMILES: N=C(N)NCCC[C@H](NC(=O)[C@H](Cc1ccccc1)NC(=O)[C@@H]1CCCN1C(=O)[C@H](CO)NC(=O)N(Cc1ccccc1)NC(=O)CNC(=O)[C@@H]1CCCN1C(=O)[C@@H]1CCCN1C(=O)[C@@H](N)CCCNC(=N)N)C(=O)O [Compound 66, RPPGazaF^5SPFR] (H-RPPG[azaPhe]SPFR-OH; N-terminus and C-terminus assumed)
- half-life (in vitro): 14.7 ± 1.6 min

SMILES: NC(=O)N(CCC(=O)O)NC(=O)[C@H](CO)NC(=O)[C@H](CO)NC(=O)[C@@H](N)Cc1ccccc1 [Compound 53, FSSazaE^4-NH2]
- IC50 (HMGB1/MD-2 binding): 397 nM
- half-life (in vitro; Ex-vivo stability t 1/2): 2.6 ± 0.11 min

SMILES: N=C(N)NCCC[C@@H](N)C(=O)N[C@@H](CCCNC(=N)N)C(=O)N1CCC[C@H]1C(=O)N1C[C@H](O)C[C@H]1C(=O)NCC(=O)N[C@@H](Cc1ccccc1)C(=O)N[C@@H](CO)C(=O)N[C@H](Cc1ccccc1)C(=O)N[C@@H](Cc1ccccc1)C(=O)N[C@@H](CCCNC(=N)N)C(=O)O [NPC 567, reference compound]
- nH (Hill coefficient) ([1]; Eurofins Cerep report): 0.6 and 0.9

SMILES: N=C(N)NCCC[C@H](NC(=O)[C@H](Cc1ccccc1)NC(=O)[C@@H]1CCCN1C(=O)[C@H](CO)NC(=O)[C@H](Cc1ccccc1)NC(=O)CNC(=O)[C@@H]1CCCN1C(=O)[C@@H]1CCCN1C(=O)N(N)CCCNC(=N)N)C(=O)O [Compound 62] (X1-PPGFSPFR-OH)
- half-life (in vitro): 2.46 ± 0.05 min

SMILES: N=C(N)NCCC[C@H](NC(=O)[C@H](Cc1ccccc1)NC(=O)[C@@H]1CCCN1C(=O)[C@H](CO)NC(=O)[C@H](Cc1ccccc1)NC(=O)NNC(=O)[C@@H]1CCCN1C(=O)[C@@H]1CCCN1C(=O)[C@@H](N)CCCNC(=N)N)C(=O)O [Compound 65, RPPazaG^4FSPFR] (H-RPP[azaGly]FSPFR-OH; N-terminus and C-terminus assumed)
- half-life (in vitro): 4.33 ± 1.3 min
